In ChEMBL document CHEMBL1201862, “PubChem BioAssay data set” (2004):
Active and inactive are the calls of the source.

Assays:
[1] = reduction of Shn3 3'UTR-driven luciferase in osteoblasts – cell-based, Clone20 osteoblasts, firefly luciferase, cherry-picked, dose response (AID 624132); assay type: functional;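 also: firefly luciferase luminescence from reporter carrying the Shn3 3'UTR in osteoblasts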
[2] = loss of viability in HepG2 cells – cell-based, CellTiter-Glo, cherry-picked, cytotoxicity control for Shn3 inhibitor project, dose response (AID 624134); assay type: functional
[3] = non-specific 3'UTR reporter inhibition in Clone20-Shn3RL – cell-based, Renilla luciferase, cherry-picked, counter-screen for Shn3 inhibitor project, dose response (AID 624133); assay type: functional
[4] = target: Protein Wnt-3a (Mus musculus, UniProt P27467); experiment: antagonism of Wnt3a pathway luciferase reporter – Wnt-LIGHT cells, luminescence, selectivity assay for Gli-SUFU antagonist project, dose response (AID 651570); assay type: functional; settings: read-out: IC50_Mean;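 also: Wnt-LIGHT reporter cells stimulated with conditioned medium from Wnt3a-producing cells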
[5] = target: Melanin-concentrating hormone receptor 1 (Homo sapiens, UniProt Q99705); experiment: Late-stage fluorescence-based counterscreen for antagonists of the G-protein coupled receptor 7 (GPR7): cell-based dose response assay to identify antagonists of the melanin-concentrating hormone receptor 1 (MCHR1) Set 6.; assay type: functional
[6] = target: T1, Neuropeptides B/W receptor type 1 (Homo sapiens, UniProt P48145); experiment: human NPBW1 receptor blockade, IC50 – cell-based, fluorescence, dose response, set 6, late-stage follow-up (AID 588583); assay type: functional
T1 sequence (P48145 whole entry): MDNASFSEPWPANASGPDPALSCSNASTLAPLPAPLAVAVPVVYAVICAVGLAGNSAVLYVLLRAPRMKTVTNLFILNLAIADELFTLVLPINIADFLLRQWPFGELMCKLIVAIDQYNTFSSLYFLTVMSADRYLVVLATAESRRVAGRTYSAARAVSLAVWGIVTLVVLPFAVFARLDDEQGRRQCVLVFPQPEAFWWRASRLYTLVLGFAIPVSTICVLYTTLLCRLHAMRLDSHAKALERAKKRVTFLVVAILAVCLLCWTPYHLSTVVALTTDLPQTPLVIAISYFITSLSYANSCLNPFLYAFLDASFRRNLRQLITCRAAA

[7] = inhibition of ARNT PAS-B/TACC3 complex formation – biochemical, AlphaScreen, cherry-picked samples, confirmation (AID 651703); assay type: functional, Homo sapiens;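 also: His-tagged ARNT PAS-B domain paired with GST-TACC3 E629A dimer coactivator fragment; potency of inhibitors that break up the complex and lower AlphaScreen signal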
[8] = target: T2, RNA-binding protein pos-1 (Caenorhabditis elegans, UniProt G5EF15); experiment: disruptors of C. elegans POS-1 RNA interaction – biochemical, fluorescence polarization, dose response (AID 1964);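 also: purified POS-1 fused to maltose binding protein made in E. coli; potency of compounds blocking POS-1 binding to fluorescent RNA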
T2 sequence (G5EF15 whole entry): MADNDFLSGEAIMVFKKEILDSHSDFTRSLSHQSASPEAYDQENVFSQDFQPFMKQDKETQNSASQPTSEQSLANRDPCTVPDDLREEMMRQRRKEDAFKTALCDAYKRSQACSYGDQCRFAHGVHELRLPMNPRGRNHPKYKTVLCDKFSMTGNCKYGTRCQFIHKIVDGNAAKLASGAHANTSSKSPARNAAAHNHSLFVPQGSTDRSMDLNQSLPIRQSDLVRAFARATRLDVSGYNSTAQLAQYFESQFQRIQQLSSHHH

[9] = target: T3, Zinc finger protein mex-5 (Caenorhabditis elegans, UniProt Q9XUB2); experiment: potency of MEX-5 RNA-binding blockers – biochemical, C. elegans, fluorescence polarization, dose response (AID 1960)
T3 sequence (Q9XUB2 whole entry): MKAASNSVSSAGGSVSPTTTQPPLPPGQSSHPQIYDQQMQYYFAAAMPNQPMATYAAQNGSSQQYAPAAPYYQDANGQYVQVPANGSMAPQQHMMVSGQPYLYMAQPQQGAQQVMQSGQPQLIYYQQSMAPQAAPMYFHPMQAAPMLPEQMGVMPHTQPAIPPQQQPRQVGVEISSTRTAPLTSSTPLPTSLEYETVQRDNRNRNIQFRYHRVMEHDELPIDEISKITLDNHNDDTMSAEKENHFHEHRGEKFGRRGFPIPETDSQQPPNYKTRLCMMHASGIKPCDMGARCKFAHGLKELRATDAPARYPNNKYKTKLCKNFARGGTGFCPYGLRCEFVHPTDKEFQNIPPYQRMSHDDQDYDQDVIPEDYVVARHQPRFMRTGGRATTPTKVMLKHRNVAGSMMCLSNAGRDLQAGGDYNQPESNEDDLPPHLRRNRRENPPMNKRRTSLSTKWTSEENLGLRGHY

[10] = target: Genome polyprotein (dengue virus type 2, UniProt P29990); experiment: flavivirus cap methylation enzyme inhibition – biochemical, confirmation dose response, primary screen (AID 588689); assay type: functional
[11] = target: T4, Carboxy-terminal domain RNA polymerase II polypeptide A small phosphatase 1 (Homo sapiens, UniProt Q9GZU7); experiment: CTDSP1 inhibitors, concentration-response, biochemical, absorbance readout, ultra-high-throughput screen actives (AID 540297); assay type: functional
T4 sequence (Q9GZU7 whole entry): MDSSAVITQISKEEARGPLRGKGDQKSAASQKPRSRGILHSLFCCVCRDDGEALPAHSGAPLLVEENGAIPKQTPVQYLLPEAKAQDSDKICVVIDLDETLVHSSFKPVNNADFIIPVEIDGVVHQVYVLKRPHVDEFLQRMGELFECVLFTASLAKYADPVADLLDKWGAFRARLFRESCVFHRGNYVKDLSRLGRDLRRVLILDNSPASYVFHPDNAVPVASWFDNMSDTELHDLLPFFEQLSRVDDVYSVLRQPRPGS

[12] = target: DNA (cytosine-5)-methyltransferase 1 (Homo sapiens, UniProt P26358); experiment: inhibition of DNA methylation by DNMT1 – biochemical, fluorescent molecular beacon, confirmation (AID 602386); assay type: functional
[13] = target: Histone-lysine N-methyltransferase NSD2 (Homo sapiens, UniProt O96028); assay type: biochemical
[14] = target: DNA repair and recombination protein RAD54-like (Homo sapiens, UniProt Q92698); experiment: RAD54 Holliday junction migration blockers – biochemical, fluorescence, cherry-picked samples, dose series, confirmation (AID 651657); assay type: functional
[15] = target: Potassium voltage-gated channel subfamily KQT member 2 (Rattus norvegicus, UniProt O88943); experiment: blockers of KCNQ2 channel current – cell-based, automated electrophysiology, set II, rat KCNQ2, dose response (AID 588637); assay type: functional
[16] = target: Melanocortin receptor 4 (Homo sapiens, UniProt P32245); assay type: functional, cell-based;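 also: Cell-based assay with luminescence read-out, confirmatory dose-response testing for agonist activity of biased ligands at MC4R; human U2OS cells with tagged receptor and beta-arrestin; potency of agonists that increase receptor coupling to beta-arrestin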
[17] = target: T5, Sentrin-specific protease 1 (Homo sapiens, UniProt Q9P0U3); experiment: SENP1 catalytic domain blockers, concentration series – biochemical, kinetic FRET, dose response (AID 651697); assay type: functional; settings: read-out: IC50_Mean
T5 sequence (Q9P0U3 whole entry): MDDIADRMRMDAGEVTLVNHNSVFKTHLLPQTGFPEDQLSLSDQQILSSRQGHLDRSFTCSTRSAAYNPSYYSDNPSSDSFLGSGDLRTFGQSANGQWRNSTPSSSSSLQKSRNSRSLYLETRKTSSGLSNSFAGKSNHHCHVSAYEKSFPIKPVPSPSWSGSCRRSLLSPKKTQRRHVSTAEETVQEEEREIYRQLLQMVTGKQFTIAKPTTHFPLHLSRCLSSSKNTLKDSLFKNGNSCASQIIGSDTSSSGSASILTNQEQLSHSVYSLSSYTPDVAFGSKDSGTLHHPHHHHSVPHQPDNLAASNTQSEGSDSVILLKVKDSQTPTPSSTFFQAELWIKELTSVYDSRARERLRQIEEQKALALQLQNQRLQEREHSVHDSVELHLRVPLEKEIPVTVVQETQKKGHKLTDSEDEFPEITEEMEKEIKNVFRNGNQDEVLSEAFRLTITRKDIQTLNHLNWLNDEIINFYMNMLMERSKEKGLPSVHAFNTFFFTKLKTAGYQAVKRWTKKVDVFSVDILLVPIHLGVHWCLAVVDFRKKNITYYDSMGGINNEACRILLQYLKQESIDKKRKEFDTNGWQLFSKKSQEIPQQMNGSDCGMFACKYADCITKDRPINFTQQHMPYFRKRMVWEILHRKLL

[18] = target: T5, Sentrin-specific protease 1; experiment: Dose response confirmation of small molecule inhibitors of the catalytic domain of the SUMO protease, SENP1 in a FRET assay.; assay type: functional; settings: read-out: IC50_Mean
[19] = target: Ras and Rab interactor 1/Tyrosine-protein kinase ABL1 (Homo sapiens, UniProt P00519+Q13671); assay type: functional;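 also: biochemical TR-FRET dose-response test measuring inhibition of binding between Rin1 and Abl proteins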
[20] = Luminescence Cell-Based Dose Confirmation HTS to Identify Activators of 5'UTR Stem-Loop Driven Alpha-Synuclein mRNA Translation in H4 Neuroglioblastoma Cells. [Related pubchem assays: 1829 (Project Summary), 1814 (Primary HTS)]; assay type: functional
[21] = Luminescence Cell-Based Dose Response HTS to Identify Activators of Luciferase Translation or Activity in H4 […] Cells. [Related pubchem assays: 1829 (Project Summary), 1814 (Primary HTS)]; assay type: functional
[22] = test system: H4; experiment: Luminescence Cell-Based Dose Response HTS to Identify Activators of 5'UTR Stem-Loop Driven Prion Protein mRNA Translation in H4 Neuroglioblastoma Cells. [Related pubchem assays: 1829 (Project Summary), 1814 (Primary HTS)]; assay type: functional; settings: Homo sapiens
[23] = Vero cell cytotoxicity, cytotoxicity control for M. tuberculosis inhibitor project, purified and synthesized samples, set 3 (AID 504684); assay type: functional

Protein Wnt-3a, sequence (P27467 whole entry): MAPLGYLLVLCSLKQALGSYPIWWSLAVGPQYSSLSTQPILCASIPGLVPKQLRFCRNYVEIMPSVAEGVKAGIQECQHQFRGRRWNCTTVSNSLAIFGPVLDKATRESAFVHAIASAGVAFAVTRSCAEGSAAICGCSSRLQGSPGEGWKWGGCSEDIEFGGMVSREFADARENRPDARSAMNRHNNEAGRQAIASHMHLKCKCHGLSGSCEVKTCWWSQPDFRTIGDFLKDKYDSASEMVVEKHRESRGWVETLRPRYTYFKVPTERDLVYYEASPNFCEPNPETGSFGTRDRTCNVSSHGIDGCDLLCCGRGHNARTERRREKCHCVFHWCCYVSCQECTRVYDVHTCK
Melanocortin receptor 4, sequence (P32245 whole entry, the tested form may be a part): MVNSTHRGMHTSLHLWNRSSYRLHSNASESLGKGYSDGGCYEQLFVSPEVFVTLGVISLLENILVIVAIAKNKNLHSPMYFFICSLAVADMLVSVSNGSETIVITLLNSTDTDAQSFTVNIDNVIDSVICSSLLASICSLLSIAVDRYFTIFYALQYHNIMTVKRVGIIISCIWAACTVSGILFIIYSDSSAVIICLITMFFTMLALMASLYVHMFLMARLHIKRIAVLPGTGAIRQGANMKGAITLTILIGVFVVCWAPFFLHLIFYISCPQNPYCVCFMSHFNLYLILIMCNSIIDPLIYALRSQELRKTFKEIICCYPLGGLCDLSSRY
DNA repair and recombination protein RAD54-like, sequence (Q92698 whole entry): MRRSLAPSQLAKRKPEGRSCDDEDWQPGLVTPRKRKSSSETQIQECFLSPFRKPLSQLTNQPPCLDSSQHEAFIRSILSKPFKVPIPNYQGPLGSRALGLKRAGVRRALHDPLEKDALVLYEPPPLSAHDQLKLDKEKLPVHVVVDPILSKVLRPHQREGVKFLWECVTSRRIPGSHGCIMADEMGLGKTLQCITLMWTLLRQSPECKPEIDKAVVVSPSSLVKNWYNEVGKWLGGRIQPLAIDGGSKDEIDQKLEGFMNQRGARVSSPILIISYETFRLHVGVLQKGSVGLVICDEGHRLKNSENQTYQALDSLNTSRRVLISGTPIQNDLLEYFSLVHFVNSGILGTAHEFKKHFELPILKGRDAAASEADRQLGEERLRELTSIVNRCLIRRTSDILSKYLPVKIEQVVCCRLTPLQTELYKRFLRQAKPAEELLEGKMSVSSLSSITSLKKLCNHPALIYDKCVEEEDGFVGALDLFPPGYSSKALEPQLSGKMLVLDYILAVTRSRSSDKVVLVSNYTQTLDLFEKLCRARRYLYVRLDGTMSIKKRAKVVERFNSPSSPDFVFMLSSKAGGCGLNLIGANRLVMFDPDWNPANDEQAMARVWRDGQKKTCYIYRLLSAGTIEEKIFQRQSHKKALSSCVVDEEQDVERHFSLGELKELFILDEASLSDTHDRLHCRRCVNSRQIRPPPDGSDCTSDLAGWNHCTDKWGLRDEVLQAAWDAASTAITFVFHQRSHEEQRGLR
Ras and Rab interactor 1/Tyrosine-protein kinase ABL1, sequence (P00519 whole entry): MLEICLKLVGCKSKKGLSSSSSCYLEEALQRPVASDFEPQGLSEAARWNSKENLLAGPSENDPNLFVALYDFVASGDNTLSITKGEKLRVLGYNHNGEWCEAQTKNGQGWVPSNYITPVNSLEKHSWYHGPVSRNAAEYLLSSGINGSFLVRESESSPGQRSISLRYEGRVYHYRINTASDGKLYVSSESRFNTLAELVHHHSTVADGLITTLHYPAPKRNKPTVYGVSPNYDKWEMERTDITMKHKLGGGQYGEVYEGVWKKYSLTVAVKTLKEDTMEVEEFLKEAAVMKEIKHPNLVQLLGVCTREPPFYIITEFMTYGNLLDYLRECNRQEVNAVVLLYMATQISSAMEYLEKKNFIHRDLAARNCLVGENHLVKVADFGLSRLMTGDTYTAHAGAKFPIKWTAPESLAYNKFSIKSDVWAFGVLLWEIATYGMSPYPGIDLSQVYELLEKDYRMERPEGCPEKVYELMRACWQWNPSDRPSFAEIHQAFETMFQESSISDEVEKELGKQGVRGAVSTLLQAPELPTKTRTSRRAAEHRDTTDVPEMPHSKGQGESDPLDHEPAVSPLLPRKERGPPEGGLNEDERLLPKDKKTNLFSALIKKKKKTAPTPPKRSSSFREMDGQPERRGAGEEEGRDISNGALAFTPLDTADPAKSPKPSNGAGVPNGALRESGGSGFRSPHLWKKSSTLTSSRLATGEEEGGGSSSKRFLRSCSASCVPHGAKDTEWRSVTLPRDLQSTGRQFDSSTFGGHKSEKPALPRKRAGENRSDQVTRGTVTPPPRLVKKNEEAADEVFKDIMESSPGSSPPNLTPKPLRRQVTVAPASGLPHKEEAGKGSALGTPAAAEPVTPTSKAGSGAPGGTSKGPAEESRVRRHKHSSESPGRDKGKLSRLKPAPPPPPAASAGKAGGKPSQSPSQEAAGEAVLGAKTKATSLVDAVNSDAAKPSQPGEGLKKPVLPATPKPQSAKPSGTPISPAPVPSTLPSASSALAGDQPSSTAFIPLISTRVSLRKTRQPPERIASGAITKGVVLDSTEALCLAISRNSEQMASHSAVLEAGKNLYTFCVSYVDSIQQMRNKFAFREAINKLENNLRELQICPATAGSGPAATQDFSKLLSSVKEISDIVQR
Ras and Rab interactor 1/Tyrosine-protein kinase ABL1, sequence (Q13671 whole entry): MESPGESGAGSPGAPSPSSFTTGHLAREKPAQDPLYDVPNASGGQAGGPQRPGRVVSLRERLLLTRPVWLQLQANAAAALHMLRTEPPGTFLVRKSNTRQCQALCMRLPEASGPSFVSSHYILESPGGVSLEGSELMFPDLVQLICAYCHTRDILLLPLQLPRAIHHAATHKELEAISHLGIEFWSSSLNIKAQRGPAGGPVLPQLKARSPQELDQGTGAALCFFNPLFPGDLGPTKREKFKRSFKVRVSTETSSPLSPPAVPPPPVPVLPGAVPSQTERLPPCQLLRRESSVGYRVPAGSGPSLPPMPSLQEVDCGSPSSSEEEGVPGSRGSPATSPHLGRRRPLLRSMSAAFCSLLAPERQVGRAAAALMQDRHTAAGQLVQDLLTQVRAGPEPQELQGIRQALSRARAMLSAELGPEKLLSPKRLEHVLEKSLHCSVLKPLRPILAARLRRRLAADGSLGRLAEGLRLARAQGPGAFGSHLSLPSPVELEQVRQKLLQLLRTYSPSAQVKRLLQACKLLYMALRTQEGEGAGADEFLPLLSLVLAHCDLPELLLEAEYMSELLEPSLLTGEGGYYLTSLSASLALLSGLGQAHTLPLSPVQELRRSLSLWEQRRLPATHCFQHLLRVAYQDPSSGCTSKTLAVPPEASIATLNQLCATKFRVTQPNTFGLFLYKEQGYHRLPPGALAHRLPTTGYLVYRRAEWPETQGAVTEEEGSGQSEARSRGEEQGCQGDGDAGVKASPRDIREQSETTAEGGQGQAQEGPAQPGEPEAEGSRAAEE
Potassium voltage-gated channel subfamily KQT member 2, sequence (O88943 whole entry): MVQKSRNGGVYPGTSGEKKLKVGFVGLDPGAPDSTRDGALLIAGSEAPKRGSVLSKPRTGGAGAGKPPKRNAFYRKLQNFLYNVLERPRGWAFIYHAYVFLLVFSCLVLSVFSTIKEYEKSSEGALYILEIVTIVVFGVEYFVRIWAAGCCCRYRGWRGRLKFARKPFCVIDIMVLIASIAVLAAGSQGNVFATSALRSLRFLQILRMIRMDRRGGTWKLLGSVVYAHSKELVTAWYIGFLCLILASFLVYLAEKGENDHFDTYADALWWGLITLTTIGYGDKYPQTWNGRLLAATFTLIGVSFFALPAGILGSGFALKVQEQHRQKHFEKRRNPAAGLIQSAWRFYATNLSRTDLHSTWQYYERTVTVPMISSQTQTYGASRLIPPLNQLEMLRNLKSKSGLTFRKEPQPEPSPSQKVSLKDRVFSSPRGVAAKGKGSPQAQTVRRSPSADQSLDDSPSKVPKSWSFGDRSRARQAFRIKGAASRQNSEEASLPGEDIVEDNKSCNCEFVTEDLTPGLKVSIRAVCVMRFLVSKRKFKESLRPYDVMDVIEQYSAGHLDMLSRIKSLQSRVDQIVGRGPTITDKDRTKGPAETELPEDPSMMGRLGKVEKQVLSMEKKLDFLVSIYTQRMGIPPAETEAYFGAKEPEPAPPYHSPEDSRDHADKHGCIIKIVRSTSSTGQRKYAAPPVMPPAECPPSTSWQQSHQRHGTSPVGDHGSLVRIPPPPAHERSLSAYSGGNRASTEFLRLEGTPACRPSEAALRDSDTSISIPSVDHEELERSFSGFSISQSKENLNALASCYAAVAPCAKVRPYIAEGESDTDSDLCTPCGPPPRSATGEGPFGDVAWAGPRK
Melanin-concentrating hormone receptor 1, sequence (Q99705 whole entry): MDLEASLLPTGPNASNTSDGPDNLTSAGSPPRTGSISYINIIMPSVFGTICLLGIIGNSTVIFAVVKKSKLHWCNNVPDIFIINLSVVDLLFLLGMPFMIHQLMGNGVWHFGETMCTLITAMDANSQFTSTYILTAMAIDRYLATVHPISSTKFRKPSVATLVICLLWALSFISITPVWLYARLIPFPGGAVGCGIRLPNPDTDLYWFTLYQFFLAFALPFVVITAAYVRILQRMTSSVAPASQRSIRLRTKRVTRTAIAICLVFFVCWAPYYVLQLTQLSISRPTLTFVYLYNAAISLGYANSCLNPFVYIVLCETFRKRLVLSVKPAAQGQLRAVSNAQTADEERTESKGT

With `CCCCN(C(C)=O)c1ccc2c(c1)C1CC2CCN1C(=O)OCc1ccccc1` (stereo not drawn) the AC50 [1] was 1.37 µM (active), the AC50 [2] was 66.9 µM (active) and the AC50 [3] was 4.4 µM (active). For the same compound, the IC50 [4] was 3.72 µM (active).

With `N#CC(c1nc2ccccc2s1)c1c(Cl)cnn(Cc2cccc3ccccc23)c1=O` (stereo not drawn) the IC50 [5] was 0.186 µM (active) and the IC50 [6] was 0.186 µM (active).

In the case of `N#C[C@@H]1[C@@H](c2ccc(-c3ccc(F)cc3)cc2)[C@H](CO)N1c1nc(-c2ccccc2)cs1`, the AC50 [7] is reported as 84.2 µM (active).

In the case of `Cc1cc(/C=C2\C(=O)NC(=O)N(c3ccccc3F)C2=O)c(C)n1-c1cc(C(=O)O)cc(C(=O)O)c1`, the EC50 [8] is reported as > 300 µM (not active), the EC50 [9] is reported as > 300 µM (not active) and the IC50 [10] is reported as 63.6 µM (active). The IC50 [11] was 1.55 µM (active), the IC50 [12] was 10.7 µM (active) and the AC50 [13] was > 20 µM (inactive).

In the case of `Cn1c(C(=O)NCCN2CCCCCC2)cc2c(=O)n(C)c3ccccc3c21`, the AC50 [14] is reported as 25.3 µM (active).

In the case of `COCCNC(C(=O)Nc1cc(Cl)cc(Cl)c1)c1ccccc1` (stereo not drawn), the IC50 [15] is reported as 16.1 µM (active).

For `CC(=O)c1cccc(-c2cnc3c(NC=O)cc(-c4ccc(N(C)C)cc4)cn23)c1`, the EC50 [16] was > 89.2 µM (inactive), the IC50 [17] was 9.66 µM (active) and the IC50 [18] was 11.2 µM (active).

For `Oc1ncnc2c1C(c1ccccc1)c1c(O)ncnc1O2`, the IC50 [19] was 32 µM (inactive).

With `CCc1ccc(/C=C2/C(=O)N(C)C(=S)N2CC(=O)OC)s1` the EC50 [20] was 16.6 µM (active), the EC50 [21] was > 120 µM (not active) and the EC50 [22] was > 120 µM (not active). For the same compound, the CC50 [23] was > 100 µM (active).
